Source: ChEMBL document CHEMBL5620349, “Recent advance of small-molecule drugs for clinical treatment of multiple myeloma” (Eur J Med Chem, 2023)
Counter-ions that a name gives are not always drawn.

Assays:
[1] = system: Human immunodeficiency virus 2; test: Antiviral activity against HIV-2
[2] = molecular target: Beta-2 adrenergic receptor (Homo sapiens, UniProt P07550); test: Agonist activity at Adrenergic beta2 receptor (unknown origin); format: functional
[3] = molecular target: Nuclear factor NF-kappa-B complex (Homo sapiens, UniProt P19838+Q00653+Q04206); test: Inhibition of NF-kappaB (unknown origin); format: protein-complex assay
Chain of Nuclear factor NF-kappa-B complex (P19838 1-433 limits assumed): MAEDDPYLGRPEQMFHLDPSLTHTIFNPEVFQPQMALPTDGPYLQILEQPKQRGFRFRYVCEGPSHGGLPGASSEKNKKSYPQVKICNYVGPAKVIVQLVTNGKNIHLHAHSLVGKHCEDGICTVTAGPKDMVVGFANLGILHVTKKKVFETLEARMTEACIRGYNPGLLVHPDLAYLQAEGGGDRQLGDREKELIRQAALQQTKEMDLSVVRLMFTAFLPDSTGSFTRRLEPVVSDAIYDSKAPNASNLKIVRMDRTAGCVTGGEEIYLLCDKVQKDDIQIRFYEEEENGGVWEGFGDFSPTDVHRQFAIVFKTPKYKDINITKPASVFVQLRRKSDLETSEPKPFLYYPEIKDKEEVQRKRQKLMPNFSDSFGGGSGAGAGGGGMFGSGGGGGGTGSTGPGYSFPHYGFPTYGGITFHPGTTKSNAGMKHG
Chain of Nuclear factor NF-kappa-B complex (Q00653 1-454 limits assumed): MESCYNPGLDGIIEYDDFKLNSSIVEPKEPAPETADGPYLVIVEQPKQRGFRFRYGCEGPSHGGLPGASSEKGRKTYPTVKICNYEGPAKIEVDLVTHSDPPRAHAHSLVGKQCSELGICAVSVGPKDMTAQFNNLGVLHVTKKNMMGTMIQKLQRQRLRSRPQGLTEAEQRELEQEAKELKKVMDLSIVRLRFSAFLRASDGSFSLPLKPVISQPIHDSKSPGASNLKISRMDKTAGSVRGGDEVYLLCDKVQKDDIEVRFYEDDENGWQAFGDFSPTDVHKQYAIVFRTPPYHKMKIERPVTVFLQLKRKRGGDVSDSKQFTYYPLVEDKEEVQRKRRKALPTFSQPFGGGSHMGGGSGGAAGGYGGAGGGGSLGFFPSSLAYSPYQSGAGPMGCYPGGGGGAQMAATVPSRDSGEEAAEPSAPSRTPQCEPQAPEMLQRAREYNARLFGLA
Chain of Nuclear factor NF-kappa-B complex (Q04206 whole entry): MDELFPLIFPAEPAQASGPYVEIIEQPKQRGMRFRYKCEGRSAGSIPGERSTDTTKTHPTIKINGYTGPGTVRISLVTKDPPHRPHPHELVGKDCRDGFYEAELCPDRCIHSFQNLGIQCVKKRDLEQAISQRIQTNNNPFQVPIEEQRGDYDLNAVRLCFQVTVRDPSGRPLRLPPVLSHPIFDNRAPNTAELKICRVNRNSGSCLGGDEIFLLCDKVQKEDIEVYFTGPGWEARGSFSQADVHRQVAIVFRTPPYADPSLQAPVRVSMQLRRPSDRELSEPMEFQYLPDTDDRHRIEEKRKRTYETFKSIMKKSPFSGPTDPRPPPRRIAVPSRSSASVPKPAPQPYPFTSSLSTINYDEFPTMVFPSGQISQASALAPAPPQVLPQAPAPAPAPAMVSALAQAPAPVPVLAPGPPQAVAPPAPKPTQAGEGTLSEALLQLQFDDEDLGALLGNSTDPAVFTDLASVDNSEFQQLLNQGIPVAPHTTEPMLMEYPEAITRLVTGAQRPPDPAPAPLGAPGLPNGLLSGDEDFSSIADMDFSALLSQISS

[4] = Inhibition of 20s proteasome beta1 (unknown origin) mediated […] activity; set-up: species or system Homo sapiens
[5] = Inhibition of 20s proteasome beta2 (unknown origin) mediated […] activity; set-up: species or system Homo sapiens
Protein smoothened [6] = molecular target: Protein smoothened (Mus musculus, UniProt P56726); test: Antagonist activity at mouse SMO
Chain of Protein smoothened (Mus musculus, UniProt P56726) (P56726 whole entry): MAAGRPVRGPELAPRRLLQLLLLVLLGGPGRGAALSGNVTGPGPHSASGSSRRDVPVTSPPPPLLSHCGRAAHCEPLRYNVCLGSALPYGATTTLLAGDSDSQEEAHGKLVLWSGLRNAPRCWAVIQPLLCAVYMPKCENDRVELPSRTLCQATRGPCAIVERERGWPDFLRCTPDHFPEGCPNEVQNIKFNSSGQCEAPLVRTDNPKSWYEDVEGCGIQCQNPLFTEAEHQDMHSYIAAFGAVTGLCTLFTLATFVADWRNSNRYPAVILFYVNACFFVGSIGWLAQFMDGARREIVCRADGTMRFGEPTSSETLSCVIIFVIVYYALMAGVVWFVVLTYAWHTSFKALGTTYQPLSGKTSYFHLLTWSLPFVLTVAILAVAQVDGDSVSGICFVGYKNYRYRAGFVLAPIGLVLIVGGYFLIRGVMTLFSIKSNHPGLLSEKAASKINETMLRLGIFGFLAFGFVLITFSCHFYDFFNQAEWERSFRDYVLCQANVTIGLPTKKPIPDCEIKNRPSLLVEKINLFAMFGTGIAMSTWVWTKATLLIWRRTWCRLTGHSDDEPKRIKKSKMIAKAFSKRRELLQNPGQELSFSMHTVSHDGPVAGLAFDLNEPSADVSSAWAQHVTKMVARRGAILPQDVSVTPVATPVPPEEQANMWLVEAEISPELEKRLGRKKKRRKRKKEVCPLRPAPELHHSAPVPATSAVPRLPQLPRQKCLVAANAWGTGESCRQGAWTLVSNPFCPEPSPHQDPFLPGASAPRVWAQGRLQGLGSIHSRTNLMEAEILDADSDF

Protein smoothened [7] = molecular target: Protein smoothened (Homo sapiens, UniProt Q99835); test: Antagonist activity at human SMO
Chain of Protein smoothened (Homo sapiens, UniProt Q99835) (Q99835 whole entry): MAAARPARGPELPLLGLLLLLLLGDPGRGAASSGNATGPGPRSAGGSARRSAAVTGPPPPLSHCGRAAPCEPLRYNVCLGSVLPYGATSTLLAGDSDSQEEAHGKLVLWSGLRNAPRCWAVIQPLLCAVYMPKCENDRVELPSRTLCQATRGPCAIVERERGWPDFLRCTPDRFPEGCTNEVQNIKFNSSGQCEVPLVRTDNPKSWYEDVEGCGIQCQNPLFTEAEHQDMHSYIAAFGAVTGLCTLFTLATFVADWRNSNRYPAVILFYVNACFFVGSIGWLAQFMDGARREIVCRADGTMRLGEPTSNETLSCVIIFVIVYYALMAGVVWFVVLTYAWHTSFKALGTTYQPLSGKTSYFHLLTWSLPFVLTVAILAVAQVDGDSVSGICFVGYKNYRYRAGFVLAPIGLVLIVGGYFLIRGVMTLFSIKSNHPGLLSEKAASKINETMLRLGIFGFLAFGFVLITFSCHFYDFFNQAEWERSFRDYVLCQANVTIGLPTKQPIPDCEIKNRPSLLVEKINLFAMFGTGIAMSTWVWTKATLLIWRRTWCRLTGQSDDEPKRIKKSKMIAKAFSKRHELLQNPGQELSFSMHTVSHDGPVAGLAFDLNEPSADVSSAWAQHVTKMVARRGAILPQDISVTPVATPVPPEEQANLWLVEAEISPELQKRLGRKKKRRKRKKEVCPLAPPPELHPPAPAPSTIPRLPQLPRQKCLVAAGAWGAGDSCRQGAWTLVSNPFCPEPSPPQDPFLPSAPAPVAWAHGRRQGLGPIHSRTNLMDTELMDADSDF

Chain of Beta-2 adrenergic receptor (P07550 whole entry): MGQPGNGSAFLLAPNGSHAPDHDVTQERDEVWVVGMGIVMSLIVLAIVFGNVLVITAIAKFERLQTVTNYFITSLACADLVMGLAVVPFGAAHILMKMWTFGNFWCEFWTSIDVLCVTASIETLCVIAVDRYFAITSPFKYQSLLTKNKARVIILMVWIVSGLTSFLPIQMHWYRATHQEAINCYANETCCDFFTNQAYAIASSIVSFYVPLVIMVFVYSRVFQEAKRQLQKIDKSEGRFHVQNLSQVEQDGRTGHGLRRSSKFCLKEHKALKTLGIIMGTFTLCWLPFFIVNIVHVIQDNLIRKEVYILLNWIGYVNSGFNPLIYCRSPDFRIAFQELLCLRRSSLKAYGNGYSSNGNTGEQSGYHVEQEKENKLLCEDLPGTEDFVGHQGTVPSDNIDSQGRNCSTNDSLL

## c1cc(CN2CCCNCCNCCCNCC2)ccc1CN1CCCNCCNCCCNCC1 [PLERIXAFOR]
[1]
  EC50: 1 nM

## C[C@@H]1C[C@H]2[C@@H]3CCC4=CC(=O)C=C[C@]4(C)[C@@]3(F)[C@@H](O)C[C@]2(C)[C@@]1(O)C(=O)CO [DEXAMETHASONE]
[2]
  EC50: 2.2 nM
[3]
  IC50: 0.5 nM

## CC(C)C[C@H](NC(=O)CNC(=O)c1cc(Cl)ccc1Cl)B1OC(=O)C(CC(=O)O)(CC(=O)O)O1 [IXAZOMIB CITRATE]
[4]
  IC50: 31 nM
[5]
  IC50: 3500 nM

## Cc1c(C(=O)Nc2ccc(N3C[C@@H](C)O[C@@H](C)C3)nc2)cccc1-c1ccc(OC(F)(F)F)cc1 [SONIDEGIB PHOSPHATE]
Protein smoothened [6]
  IC50: 1.3 nM
Protein smoothened [7]
  IC50: 2.5 nM
